Data from PubChem BioAssay AID248 (DTP/NCI, 2004).
Toxic doses and inconclusive results are not listed. Cut-off read from the data, not from the text of the source: active = T/C of 150% or more; inactive = T/C below 125%.

Tested on: L1210 leukemia ip in BDF1 mice, survival T/C
Assay: NCI In Vivo Anticancer Drug Screen. Data for tumor model L1210 Leukemia (intraperitoneal) in B6D2F1 (BDF1) mice
Conditions: endpoint: mean survival time, higher = longer survival
Outline: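 Tumor was transplanted into mice, which were then dosed with test compound or vehicle alone. Survival was recorded for each group, and the treated figure was expressed relative to the control figure.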

[1] = dose: 100.0 mg/kg/injection, schedule: Q01DX009 (ip), vehicle: Klucel (hydroxypropylcellulose) (HPC)
[2] = dose: 200.0 mg/kg/injection, schedule: Q01DX009 (ip), vehicle: Klucel (hydroxypropylcellulose) (HPC)
[3] = dose: 100.0 mg/kg/injection, schedule: Q01DX001 (ip), vehicle: carboxymethylcellulose (CMC)
[4] = dose: 200.0 mg/kg/injection, schedule: Q01DX001 (ip), vehicle: carboxymethylcellulose (CMC)
[5] = dose: 400.0 mg/kg/injection, schedule: Q01DX001 (ip), vehicle: carboxymethylcellulose (CMC)
[6] = dose: 50.0 mg/kg/injection, schedule: Q01DX009 (ip), vehicle: saline with Tween-80
[7] = dose: 100.0 mg/kg/injection, schedule: Q01DX009 (ip), vehicle: saline with Tween-80
[8] = dose: 200.0 mg/kg/injection, schedule: Q01DX009 (ip), vehicle: saline with Tween-80

Measured: T/C

N=C(N)c1ccc(OCCCCCCOc2ccc(C(=N)N)cc2)cc1
inactive: dose: 5.0 mg/kg/injection, schedule: Q01DX001 (ip), vehicle: saline 100 % of control | dose: 10.0 mg/kg/injection, schedule: Q01DX001 (ip), vehicle: saline 100 % of control | dose: 20.0 mg/kg/injection, schedule: Q01DX001 (ip), vehicle: saline 103 % of control | dose: 40.0 mg/kg/injection, schedule: Q01DX001 (ip), vehicle: saline 101 % of control | dose: 80.0 mg/kg/injection, schedule: Q01DX001 (ip), vehicle: saline 92 % of control

COc1ccc([N+](=O)[O-])cc1NC(=O)Oc1ccc(F)cc1Cl
inactive: dose: 50.0 mg/kg/injection, schedule: Q01DX009 (ip), vehicle: Klucel (hydroxypropylcellulose) (HPC) 108 % of control | [1] 111 % of control | [2] 90 % of control

CN1C(=O)C2C=C(Cl)C1c1ccccc12 (stereo not given)
inactive: dose: 100.0 mg/kg/injection, schedule: Q01DX001 (ip), vehicle: other 102 % of control | dose: 200.0 mg/kg/injection, schedule: Q01DX001 (ip), vehicle: other 94 % of control | dose: 400.0 mg/kg/injection, schedule: Q01DX001 (ip), vehicle: other 110 % of control

O=C(C(=O)c1cc(Br)ccc1O)c1cc(Br)ccc1O
inactive: [1] 96 % of control | dose: 100.0 mg/kg/injection, schedule: Q04DX003 (ip), vehicle: Klucel (hydroxypropylcellulose) (HPC) 93 % of control | [2] 100 % of control | dose: 200.0 mg/kg/injection, schedule: Q04DX003 (ip), vehicle: Klucel (hydroxypropylcellulose) (HPC) 97 % of control | dose: 400.0 mg/kg/injection, schedule: Q01DX009 (ip), vehicle: Klucel (hydroxypropylcellulose) (HPC) 94 % of control | dose: 400.0 mg/kg/injection, schedule: Q04DX003 (ip), vehicle: Klucel (hydroxypropylcellulose) (HPC) 95 % of control

O=C(O)c1cc2ccc(O)cc2oc1=O
inactive: [3] 94 % of control | [4] 94 % of control | [5] 97 % of control

COC(=O)C1(C)CCCC2(C)C1CCC13OCC(CC21)C(O)(C(C)C)C3O (stereo not given)
inactive: [6] 97 % of control | [7] 97 % of control | [8] 90 % of control

CS(=O)(=O)O/C=C1/CCOC1=O
inactive: dose: 12.5 mg/kg/injection, schedule: Q01DX009 (ip), vehicle: water 105 % of control | dose: 25.0 mg/kg/injection, schedule: Q01DX009 (ip), vehicle: water 106 % of control

COc1ccc(C(=O)Nc2ccccc2)cc1NC(=S)Nc1ccccc1
inactive: dose: 100.0 mg/kg/injection, schedule: Q04DX002 (ip), vehicle: Klucel (hydroxypropylcellulose) (HPC) 95 % of control | dose: 200.0 mg/kg/injection, schedule: Q04DX002 (ip), vehicle: Klucel (hydroxypropylcellulose) (HPC) 98 % of control

CCOC(=O)/C(C)=C\c1c(Br)cc(Br)c(N)c1Br
inactive: dose: 75.0 mg/kg/injection, schedule: Q01DX009 (ip), vehicle: Klucel (hydroxypropylcellulose) (HPC) 97 % of control | dose: 150.0 mg/kg/injection, schedule: Q01DX009 (ip), vehicle: Klucel (hydroxypropylcellulose) (HPC) 97 % of control | dose: 300.0 mg/kg/injection, schedule: Q01DX009 (ip), vehicle: Klucel (hydroxypropylcellulose) (HPC) 95 % of control

C=CCOCCC#N
inactive: dose: 25.0 mg/kg/injection, schedule: Q01DX009 (ip), vehicle: saline with Tween-80 95 % of control | [6] 97 % of control | [7] 100 % of control

O=C1c2ccccc2-c2ccc(N3C(=O)c4ccccc4C3=O)cc21
inactive: dose: 16.5 mg/kg/injection, schedule: Q01DX001 (ip), vehicle: saline with Tween-80 88 % of control | dose: 37.5 mg/kg/injection, schedule: Q01DX001 (ip), vehicle: saline with Tween-80 92 % of control | dose: 50.0 mg/kg/injection, schedule: Q01DX001 (ip), vehicle: saline with Tween-80 95 % of control | dose: 100.0 mg/kg/injection, schedule: Q01DX001 (ip), vehicle: saline with Tween-80 91 % of control

CC(=O)Nc1ccc(NC(=O)Nc2ccc(C)cc2)cc1
inactive: [6] 90 % of control | [7] 90 % of control | [8] 90 % of control

COc1ccc(C(=O)c2ccccc2NC(C)=O)cc1
inactive: dose: 100.0 mg/kg/injection, schedule: Q04DX003 (ip), vehicle: saline with Tween-80 89 % of control | dose: 200.0 mg/kg/injection, schedule: Q04DX003 (ip), vehicle: saline with Tween-80 98 % of control | dose: 400.0 mg/kg/injection, schedule: Q04DX003 (ip), vehicle: saline with Tween-80 94 % of control

CN(C(=O)NCCCl)C1CCC(C(=O)O)CC1 (stereo not given)
inactive: dose: 100.0 mg/kg/injection, schedule: Q01DX001 (ip), vehicle: Klucel (hydroxypropylcellulose) (HPC) 92 % of control | dose: 200.0 mg/kg/injection, schedule: Q01DX001 (ip), vehicle: Klucel (hydroxypropylcellulose) (HPC) 88 % of control

NCC(=O)O
inactive: [3] 100 % of control | [4] 92 % of control | [5] 100 % of control

CCN(CC)C(=S)SC(=S)N(CC)CC
inactive: dose: 100.0 mg/kg/injection, schedule: Q04DX002 (ip), vehicle: gum acacia 103 % of control | dose: 200.0 mg/kg/injection, schedule: Q04DX002 (ip), vehicle: gum acacia 103 % of control | dose: 400.0 mg/kg/injection, schedule: Q04DX002 (ip), vehicle: gum acacia 89 % of control

CC(C)NNC(=O)c1ccncc1
inactive: dose: 25.0 mg/kg/injection, schedule: Q04DX003 (ip), vehicle: saline 107 % of control | dose: 50.0 mg/kg/injection, schedule: Q04DX003 (ip), vehicle: saline 102 % of control | dose: 100.0 mg/kg/injection, schedule: Q04DX003 (ip), vehicle: saline 96 % of control | dose: 200.0 mg/kg/injection, schedule: Q04DX003 (ip), vehicle: saline 98 % of control | dose: 400.0 mg/kg/injection, schedule: Q04DX003 (ip), vehicle: saline 104 % of control

Cc1ccc(C2NC(=O)N3C(c4ccc(C)cc4)NC(=O)N23)cc1 (stereo not given)
inactive: dose: 100.0 mg/kg/injection, schedule: Q01DX009 (ip), vehicle: gum acacia 99 % of control | dose: 100.0 mg/kg/injection, schedule: Q04DX003 (ip), vehicle: gum acacia 99 % of control | dose: 200.0 mg/kg/injection, schedule: Q01DX009 (ip), vehicle: gum acacia 102 % of control | dose: 200.0 mg/kg/injection, schedule: Q04DX003 (ip), vehicle: gum acacia 87 % of control | dose: 400.0 mg/kg/injection, schedule: Q01DX009 (ip), vehicle: gum acacia 96 % of control | dose: 400.0 mg/kg/injection, schedule: Q04DX003 (ip), vehicle: gum acacia 92 % of control

COC(=O)c1ccc(N(C)CCC(=O)CN)cc1
inactive: dose: 100.0 mg/kg/injection, schedule: Q01DX001 (ip), vehicle: saline 98 % of control | dose: 200.0 mg/kg/injection, schedule: Q01DX001 (ip), vehicle: saline 101 % of control | dose: 400.0 mg/kg/injection, schedule: Q01DX001 (ip), vehicle: saline 104 % of control
